{"source": "patent EP0830136B1", "about": "“NEW CRY[…] […]” (priority 1995, dated 1996)", "key": {"[1]": {"tested_on": "human tumor cell lines KB and LoVo", "assay": "In vitro cytotoxicity, KB and LoVo", "conditions": "read-out: cytotoxicities IC50's"}, "[2]": {"conditions": "pH 11 / hydrolysis"}, "SKOV3 cells": {"tested_on": "SKOV3 cells", "assay": "Cell proliferation assay (SRB staining), SKOV3", "type": "cell-based, Human", "conditions": "24 hours with IC50 doses"}, "[3]": {"tested_on": "Jurkat T cell leukemia line", "assay": "Jurkat cell proliferation and mitotic index", "type": "cell-based", "conditions": "Homo sapiens; Jurkat cells, 24 hours; read-out: IC50s for inhibition of cell proliferation and accumulation of cells in mitosis"}, "[4]": {"tested_on": "A-10 rat aortic smooth muscle cells", "assay": "Immunofluorescence of cytoskeleton in A-10 cells", "type": "cell-based", "protocol": "A-10 cells were grown to near-confluency on glass coverslips in BME/10% FBS. Compounds in PBS were added to the indicated final concentrations and cells were incubated for an additional 24 hours. For the staining of microtubules and intermediate filaments, the cells were fixed with cold methanol and incubated with PBS containing 10% calf serum to block nonspecific binding sites. Cells were then incubated at 37°C for 60 min with either monoclonal anti-β-tubulin or with monoclonal anti-vimentin at dilutions recommended by the manufacturer. Bound primary antibodies were subsequently visualized by a 45-minute incubation with fluorescein-conjugated rabbit antimouse IgG. The coverslips were mounted on microscope slides and the fluorescence patterns were examined and photographed using a Zeiss Photomicroscope ill equipped with epifluorescence optics for fluorescein. […] PBS containing 100nM TRITC-phalloidin was then added and the mixture was allowed to incubate for 45 min at 37° C. The cells were washed rapidly three times with PBS before the coverslips were mounted and immediately photographed as described above."}, "SKVLB1 cells": {"tested_on": "SKVLB1 cells", "assay": "cells", "type": "cell-based", "conditions": "Homo sapiens, SKVLB1, 48 h, read-out: SKVLB1 IC50 (nM)", "protocol": "The Jurkat T cell leukemia line and A-10 rat aortic smooth muscle cells were obtained from the American Type Culture Collection and were cultured in BME containing 10% FBS and 50µg/mL gentamycin sulfate. […] Both cell lines were maintained in BME containing 10% FBS and 50µg/mL gentamycin sulfate.\nCell proliferation assays were performed as described by Skehan et al.^11 For Jurkat cells, cultures were treated with the indicated drugs as described in Skehan^11 and total cell numbers were determined by counting the cells in a hemacytometer. The percentage of cells in mitosis was determined by staining with 0.4% Giemsa in PBS followed by three rapid washes with PBS. At least 1000 cells per treatment were scored for the presence of mitotic figures and the mitotic index was calculated as the ratio of cells with mitotic figures to the total number of cells counted."}, "[5]": {"conditions": "A-10 cells, 24 hours, 2µM cytochalasin B, 100nM vinblastine or 10nM cryptophycin compounds"}}, "note": "Entries after “also recorded” stand apart in the source; their conditions may differ.", "data": [{"smiles": "COc1ccc(C[C@H]2NC(=O)/C=C/C[C@@H]([C@H](C)[C@H]3O[C@@H]3c3ccccc3)OC(=O)[C@H](CC(C)C)OC(=O)C(C)(C)CNC2=O)cc1Cl", "note": "[Cryptophycin 52]", "values": [{"measurement": "IC50", "setting": "[1]", "value": "0.043 to 0.07", "unit": "nM"}, {"measurement": "stability of the C-D ester bond", "setting": "[2]", "value": "stable at pH 11"}, {"measurement": "total dosage required in vivo relative to comparator", "setting": "tumors implanted in mice; mouse, in vivo", "value": "roughly three times the total dosage compared with Cryptophycin 1"}, {"measurement": "in vivo antitumor activity", "setting": "tumors implanted in mice; statement in words", "value": "active in vivo"}]}, {"smiles": "CC[C@]1(O)C[C@@H]2CN(CCc3c([nH]c4ccccc34)[C@@](C(=O)OC)(c3cc4c(cc3OC)N(C)[C@H]3[C@@](O)(C(=O)OC)[C@H](OC(C)=O)[C@]5(CC)C=CCN6CC[C@]43[C@@H]65)C2)C1", "note": "[vinblastine]", "values": [{"measurement": "increase in cell number during treatment", "setting": "SKOV3 cells", "value": 25, "unit": "%"}, {"measurement": "increase in cell numbers in the 24 hours following removal of the drug", "setting": "SKOV3 cells; then drug-free medium", "value": "approximately 3 fold"}, {"measurement": "IC50", "setting": "[3]", "value": 8, "unit": "nM"}, {"measurement": "microtubule depolymerization after taxol pretreatment", "setting": "[4]", "value": "pretreatment with taxol prevented microtubule depolymerization"}, {"measurement": "microtubule repolymerization 1 hour after removal of drug", "setting": "[4]; A-10 cells, 100nM vinblastine or 10nM cryptophycins for 24 hr, then drug-free medium 1 hour", "value": "significant levels of microtubules"}, {"measurement": "microtubule repolymerization 24 hours after removal of drug", "setting": "[4]; A-10 cells, 100nM vinblastine or 10nM cryptophycins for 24 hr, then drug-free medium 24 hours", "value": "complete morphological recovery"}, {"measurement": "effect on microfilaments", "setting": "[4]; [5]", "value": "Neither compound affected microfilawent organization"}, {"measurement": "effect on microtubules", "setting": "[4]; [5]", "value": "marked depletion of microtubules; also recorded: complete depolymerization of microtubules; also recorded: complete microtubule depolymerization"}, {"measurement": "effect on vimentin intermediate filaments", "setting": "[4]; [5]", "value": "collapsed, forming concentric rings around the nuclei"}, {"measurement": "IC50", "setting": "SKVLB1 cells", "value": 4200, "unit": "nM"}]}]}
